{"source": "patent US20240206465A1", "about": "“ACTIVE POLYMERIC FILMS AND POLYMERIC COMPOSITIONS” (Yissum Research Development Company of the Hebrew …, priority 2021, published 2024)", "key": {"T4 phage": {"system": "T4 phage", "conditions": "peptide assemblies deposited on the glass surface; cited from earlier work"}, "canine coronavirus": {"system": "canine coronavirus", "conditions": "peptide assemblies deposited on the glass surface; cited from earlier work"}, "[1]": {"assay": "Thermogravimetric analysis (thermal stability)", "assay_type": "physicochemical", "conditions": "at 160° C.; contained the absorbed water; FIG. 4A", "protocol": "Thermogravimetric analysis (TGA). TGA measurements were performed using the TGA Q5000 system (TA instruments, USA) at a heating rate of 10° C./min under nitrogen atmosphere, starting from room temperature to 800° C. The results were analyzed using Universal Analysis 200 version 4.5 A build 4.5.0.5 software."}}, "note": "Square brackets hold non-standard residues; d marks the D form. Ends that are not written are not given here. Phe(4-F) = N[C@@H](Cc1ccc(F)cc1)C(=O)O; Dopa = N[C@@H](Cc1ccc(O)c(O)c1)C(=O)O"}
{"substance": "[Dopa]-[Phe(4-F)]-[Phe(4-F)]-OMe", "values": [{"measurement": "antiviral activity against T4 phage", "setting": "T4 phage", "result": "acted against"}, {"measurement": "antiviral activity against canine coronavirus", "setting": "canine coronavirus", "result": "acted against"}, {"measurement": "weight loss of the peptide (TGA)", "setting": "[1]", "result": "< 3", "unit": "wt %"}]}
